Where a name gives a salt, the structure may show the parent alone.
target: T1, Human RET kinase cytoplasmic domain (Homo sapiens, UniProt P07949); experiment: RET kinase enzymatic assay; format: biochemical
T1 construct: made in house
T1 sequence (P07949 658-1114): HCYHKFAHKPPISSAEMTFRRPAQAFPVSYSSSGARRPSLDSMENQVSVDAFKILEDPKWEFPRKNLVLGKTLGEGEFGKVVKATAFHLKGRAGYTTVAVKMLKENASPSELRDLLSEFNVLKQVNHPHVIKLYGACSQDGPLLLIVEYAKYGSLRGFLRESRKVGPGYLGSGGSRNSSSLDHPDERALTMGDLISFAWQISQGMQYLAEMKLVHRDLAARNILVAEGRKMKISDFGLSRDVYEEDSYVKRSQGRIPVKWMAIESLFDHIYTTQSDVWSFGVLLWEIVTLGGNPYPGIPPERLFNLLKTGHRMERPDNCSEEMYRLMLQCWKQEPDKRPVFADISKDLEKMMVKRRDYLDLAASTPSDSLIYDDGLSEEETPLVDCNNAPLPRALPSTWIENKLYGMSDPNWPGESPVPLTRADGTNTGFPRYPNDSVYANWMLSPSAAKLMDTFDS
How it was run: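 GST-RET, 0.2 nM in 2× enzyme mix (HEPES, CHAPS, BSA, DTT), preincubated with inhibitor 30 min at 23 °C. Reaction for 1 h at 23 °C after adding 2× substrate mix: 20 μM ATP, 20 mM MgCl2, 1 μM biotinylated peptide. Single wells per concentration; IC50 from sigmoidal dose-response fit.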

SMILES | IC50 [nM]
CCOc1cc(-c2ncc(NC(=O)Nc3cc(OCCN4CCOCC4)cc(C(F)(F)F)c3)c(C)n2)c[nH]c1=O [Example 99] | < 100
CCOc1cc(-c2ccc(NC(=O)Nc3ccc(Cl)c(Cl)c3)c(F)c2)c[nH]c1=O [Example 170] | < 100
CCOc1cc(-c2ccc(NC(=O)Nc3ccc(OC(C)C)c(C(F)F)c3)cc2F)c[nH]c1=O [Example 160] | < 100
CCN1CCN(Cc2cc(F)c(NC(=O)Nc3cnc(-c4c[nH]c(=O)c(OCCO)c4)nc3C)cc2C(F)(F)F)CC1 [Example 172, 1-(4-((4-Ethylpiperazin-1-yl)methyl)-2-fluoro-5-(trifluoromethyl)phenyl)-3-(2-(5-(2-hydroxyethoxy)-6-oxo-1,6-dihydropyridin-3-yl)-4-methylpyrimidin-5-yl)urea] | < 100
CCOc1cc(-c2cnc(NC(=O)Nc3ccc(CN(C)C)c(C(F)(F)F)c3)c(C)n2)c[nH]c1=O [Example 114] | 100 to 500
O=C(Nc1ccc(-c2c[nH]c(=O)c3occc23)cc1F)Nc1cc(C(F)(F)F)ccc1F [Example 155] | < 100
CCOc1cc(-c2ccc(NC(=O)Nc3ccc(OC4(C)COC4)c(C(F)(F)F)c3)c(C3CC3)n2)c[nH]c1=O [Example 104] | < 100
CCOc1cc(-c2ncc(NC(=O)Nc3ccc(CC(C)(C)CO)c(C(F)(F)F)c3)c(C)n2)c[nH]c1=O [Example 48, 1-(2-(5-Ethoxy-6-oxo-1,6-dihydropyridin-3-yl)-4-methylpyrimidin-5-yl)-3-(4-(3-hydroxy-2,2-dimethylpropyl)-3-(trifluoromethyl)phenyl)urea] | < 100
CCOc1cc(-c2ncc(NC(=O)Nc3cc(C(F)(F)F)cc(S(=O)(=O)NCCN(C)C)c3)c(C)n2)c[nH]c1=O [Example 174, N-(2-(dimethylamino)ethyl)-3-(3-(2-(5-ethoxy-6-oxo-1,6-dihydropyridin-3-yl)-4-methylpyrimidin-5-yl)ureido)-5-(trifluoromethyl)benzenesulfonamide] | < 100
CC(C)Oc1ccc(NC(=O)Nc2ccc(-c3ccc(=O)[nH]c3)cc2)cc1C(F)(F)F [Example 163] | < 100
CCOc1cc(-c2ccc(NC(=O)Nc3ccc(OC4CC(F)(F)C4)c(C(F)(F)F)c3)c(F)c2)c[nH]c1=O [Example 161] | < 100
CC1(Oc2ccc(NC(=O)Nc3ccc(-c4c[nH]c(=O)c5occc45)cc3F)cc2C(F)(F)F)COC1 [Example 1, 1-(2-Fluoro-4-(7-oxo-6,7-dihydrofuro[2,3-c]pyridin-4-yl)phenyl)-3-(4-((3-methyloxetan-3-yl)oxy)-3-(trifluoromethyl)phenyl)urea] | < 100
COCCOc1cc(-c2ncc(NC(=O)Nc3cc(C(F)(F)F)c(CN4CCN(C)CC4)cc3F)c(C)n2)c[nH]c1=O [Example 184, 1-(2-Fluoro-4-((4-methylpiperazin-1-yl)methyl)-5-(trifluoromethyl)-phenyl)-3-(2-(5-(2-methoxyethoxy)-6-oxo-1,6-dihydropyridin-3-yl)-4-methylpyrimidin-5-yl)urea trihydrochloride] | < 100
Cc1nc(-c2c[nH]c(=O)c(OCCO)c2)ncc1NC(=O)Nc1cc(C(F)(F)F)c(CN2CCN(CCO)CC2)cc1F [Example 173, 1-(2-Fluoro-4-((4-(2-hydroxyethyl)piperazin-1-yl)methyl)-5-(trifluoromethyl)phenyl)-3-(2-(5-(2-hydroxyethoxy)-6-oxo-1,6-dihydropyridin-3-yl)-4-methylpyrimidin-5-yl)urea] | < 100
CCOc1cc(-c2ccc(NC(=O)Nc3ccc(C(C)(C)O)c(C(F)(F)F)c3)c(F)c2)c[nH]c1=O [Example 129] | < 100
CCOc1cc(-c2ccc(NC(=O)Nc3ccc(OC4(C)CCN(C)C4)c(C(F)(F)F)c3)c(F)c2)c[nH]c1=O (stereo not drawn) [Example 144] | < 100
CCOc1cc(-c2ncc(NC(=O)Nc3ccc(C(C)(C)O)c(C(F)(F)F)c3)c(C)n2)c[nH]c1=O [Example 71, 1-(2-(5-Ethoxy-6-oxo-1,6-dihydropyridin-3-yl)-4-methylpyrimidin-5-yl)-3-(4-(2-hydroxypropan-2-yl)-3-(trifluoromethyl)phenyl)urea] | < 100
CCOc1cc(-c2ncc(NC(=O)Nc3cc(C(=O)NCCN(C)C)cc(C(F)(F)F)c3)cn2)c[nH]c1=O [Example 189, N-(2-(Dimethylamino)ethyl)-3-(3-(2-(5-ethoxy-6-oxo-1,6-dihydropyridin-3-yl)-pyrimidin-5-yl)ureido)-5-(trifluoromethyl)benzamide] | < 100
CCOc1cc(-c2ncc(NC(=O)Nc3ccc(C(C)C#N)c(C(F)(F)F)c3)c(C)n2)c[nH]c1=O (stereo not drawn) [Example 25, 1-(4-(1-Cyanoethyl)-3-(trifluoromethyl)phenyl)-3-(2-(5-ethoxy-6-oxo-1,6-dihydropyridin-3-yl)-4-methylpyrimidin-5-yl)urea] | < 100
CCOc1cc(-c2ccc(NC(=O)Nc3ccc(OC(C)C)c(C(F)F)c3)c(C)n2)c[nH]c1=O [Example 6, 1-(3-(Difluoromethyl)-4-isopropoxyphenyl)-3-(5′-ethoxy-6-methyl-6′-oxo-1′,6′-dihydro-[2,3′-bipyridin]-5-yl)urea] | < 100

SMILES | IC50 [nM]
CCOc1cc(-c2cnc(NC(=O)Nc3ccc(OC4(C)COC4)c(C(F)(F)F)c3)c(C)c2)c[nH]c1=O [Example 105] | < 100
COc1cc(-c2ccc(NC(=O)Nc3ccc(OC4(C)COC4)c(C(F)(F)F)c3)c(C)n2)c[nH]c1=O [Example 100] | < 100
CCOc1cc(=O)[nH]cc1-c1ncc(NC(=O)Nc2ccc(C(C)(C)C(N)=O)c(C(F)(F)F)c2)c(C)n1 [Example 61, 2-(4-(3-(2-(4-Ethoxy-6-oxo-1,6-dihydropyridin-3-yl)-4-methylpyrimidin-5-yl)ureido)-2-(trifluoromethyl)phenyl)-2-methylpropanamide] | < 100
CCOc1cc(-c2ncc(NC(=O)Nc3ccc(C(C)(C)C(N)=O)c(C(F)(F)F)c3)c(C)n2)c[nH]c1=O [Example 63, 2-(4-(3-(2-(5-Ethoxy-6-oxo-1,6-dihydropyridin-3-yl)-4-methylpyrimidin-5-yl)ureido)-2-(trifluoromethyl)phenyl)-2-methylpropanamide] | < 100
CCOc1cc(=O)[nH]cc1-c1ncc(NC(=O)Nc2ccc(C3(CO)CC3)c(C(F)(F)F)c2)c(C)n1 [Example 88] | < 100
CCOc1cc(-c2ncc(NC(=O)Nc3cc(C(F)(F)F)c(CN4CCN(CC)CC4)cc3F)c(C)n2)c[nH]c1=O [Example 32, 1-(2-(5-Ethoxy-6-oxo-1,6-dihydropyridin-3-yl)-4-methylpyrimidin-5-yl)-3-(4-((4-ethylpiperazin-1-yl)methyl)-2-fluoro-5-(trifluoromethyl)phenyl)urea] | < 100
CCOc1cc(-c2ccc(NC(=O)Nc3ccc(CN4CCOCC4)c(C(F)(F)F)c3)c(F)c2)c[nH]c1=O [Example 45, 1-(4-(5-Ethoxy-6-oxo-1,6-dihydropyridin-3-yl)-2-fluorophenyl)-3-(4-(morpholinomethyl)-3-(trifluoromethyl)phenyl)urea] | < 100
CC1(Oc2ccc(NC(=O)Nc3ccc(-c4ccc(=O)[nH]c4)cc3)cc2C(F)(F)F)COC1 [Example 157] | < 100
CCOc1cc(-c2ccc(NC(=O)Nc3cc(-n4cncn4)cc(C(F)(F)F)c3)c(F)c2)c[nH]c1=O [Example 72, 1-(3-(1H-1,2,4-Triazol-1-yl)-5-(trifluoromethyl)phenyl)-3-(4-(5-ethoxy-6-oxo-1,6-dihydropyridin-3-yl)-2-fluorophenyl)urea hydrochloride] | < 100
CCOc1cc(-c2ccc(NC(=O)Nc3cc(C(F)(F)F)ccc3O)c(F)c2)c[nH]c1=O [Example 141] | < 100
CCOc1cc(=O)[nH]cc1-c1ncc(NC(=O)Nc2ccc(C#N)c(C(F)(F)F)c2)c(C)n1 [Example 44, 1-(4-Cyano-3-(trifluoromethyl)phenyl)-3-(2-(4-ethoxy-6-oxo-1,6-dihydropyridin-3-yl)-4-methylpyrimidin-5-yl)urea] | < 100
CCOc1cc(-c2ccc(NC(=O)Nc3ccc(OCCO)c(C(F)(F)F)c3)c(F)c2)c[nH]c1=O [Example 143] | < 100
CC1(Oc2ccc(NC(=O)Nc3ccc(-c4c[nH]c(=O)cc4F)cc3F)cc2C(F)(F)F)COC1 [Example 37, 1-(2-Fluoro-4-(4-fluoro-6-oxo-1,6-dihydropyridin-3-yl)phenyl)-3-(4-((3-methyloxetan-3-yl)oxy)-3-(trifluoromethyl)phenyl)urea] | < 100
CCOc1cc(-c2ccc(NC(=O)Nc3ccc(OC4(C)CC(O)C4)c(C(F)(F)F)c3)c(F)c2)c[nH]c1=O (stereo not drawn) [Example 84] | < 100
CCOc1cc(-c2ccc(NC(=O)Nc3ccc(OC4(C)COC4)c(C(F)F)c3)c(F)c2)c[nH]c1=O [Example 93] | < 100
CCOc1cc(=O)[nH]cc1-c1ncc(NC(=O)Nc2cccc(C(F)(F)F)c2)c(C)n1 [Example 38, 1-(2-(4-Ethoxy-6-oxo-1,6-dihydropyridin-3-yl)-4-methylpyrimidin-5-yl)-3-(3-(trifluoromethyl)phenyl)urea] | < 100
CCCOc1cc(-c2ccc(NC(=O)Nc3ccc(OC4(C)COC4)c(C(F)(F)F)c3)cc2)c[nH]c1=O [Example 131] | < 100
CCOc1cc(-c2ncc(NC(=O)Nc3ccc(CN4CCCC4)c(C(F)(F)F)c3)c(C)n2)c[nH]c1=O [Example 111] | 100 to 500
O=C(Nc1ccc(OCCO)c(C(F)(F)F)c1)Nc1ccc(-c2c[nH]c(=O)c(OC(F)F)c2)cc1F [Example 164] | < 100

Source: patent publication US10294236B2, “Compounds as rearranged during transfection (RET) inhibitors” (GLAXOSMITHKLINE INTELLECTUAL PROPERTY DEVELOPMENT LIMITED, priority 2014, dated 2019)
